# Laboratory results from publication PMC3561458 (Investigational new drugs, 2011).
# Marks after values point to notes of the source that are not given here.
# Tested on: patients with advanced/metastatic solid tumors
# Assay: Phase I safety: adverse events
# Type: in vivo, human
# Details: for dose-limiting toxicities (DLTs): all doses
smiles,measurement,setting,value
"CNC(=O)c1nn(C)c2c1C(C)(C)Cc1cnc(Nc3ccc(N4CCN(C)CC4)cc3)nc1-2 [PHA-848125AC, N,1,4,4-tetramethyl-8-{[4-(4-methylpiperazin-1-yl)phenyl]amino}-4,5-dihydro-1H-pyrazolo [4,3-h]quinazoline-3-carboxamide]",ERG findings during treatment,S1,No abnormal ERG findings
same,doses at which DLTs≥Grade 3 were noted,S1,≥ 200 mg/day
same,"Any drug-related adverse event, CTC Grade 1–4: patients","S1 50 mg/day N=3, all cycles",3
same,"Nausea, drug-related, CTC Grade 1–4: patients","S1 50 mg/day N=3, all cycles",1
same,"Any drug-related adverse event, CTC Grade 1–4: patients","S1 100 mg/day N=6, all cycles",6
same,"Any drug-related adverse event, CTC Grade 3–4: patients","S1 100 mg/day N=6, all cycles",1
same,"Decreased Hb, drug-related, CTC Grade 1–4: patients","S1 100 mg/day N=6, all cycles",1
same,"Decreased Hb, drug-related, CTC Grade 3–4: patients","S1 100 mg/day N=6, all cycles",1
same,"Diarrhea, drug-related, CTC Grade 1–4: patients","S1 100 mg/day N=6, all cycles",1
same,"Fatigue, drug-related, CTC Grade 1–4: patients","S1 100 mg/day N=6, all cycles",2
same,"Fatigue, drug-related, CTC Grade 3–4: patients","S1 100 mg/day N=6, all cycles",1
same,"Nausea, drug-related, CTC Grade 1–4: patients","S1 100 mg/day N=6, all cycles",3
same,"Tremor, drug-related, CTC Grade 1–4: patients","S1 100 mg/day N=6, all cycles",2
same,"Vomiting, drug-related, CTC Grade 1–4: patients","S1 100 mg/day N=6, all cycles",3
same,DLT events,S1 200 mg/day,Grade 3 ataxia and Grade 2–3 tremors
same,"Any drug-related adverse event, CTC Grade 1–4: patients","S1 200 mg/day N=6, all cycles",6
same,"Any drug-related adverse event, CTC Grade 3–4: patients","S1 200 mg/day N=6, all cycles",5
same,"Ataxia, drug-related, CTC Grade 1–4: patients","S1 200 mg/day N=6, all cycles",3
same,"Ataxia, drug-related, CTC Grade 3–4: patients","S1 200 mg/day N=6, all cycles",3
same,"Diarrhea, drug-related, CTC Grade 1–4: patients","S1 200 mg/day N=6, all cycles",5
same,"Diarrhea, drug-related, CTC Grade 3–4: patients","S1 200 mg/day N=6, all cycles",1
same,"Dizziness, drug-related, CTC Grade 1–4: patients","S1 200 mg/day N=6, all cycles",1
same,"Fatigue, drug-related, CTC Grade 1–4: patients","S1 200 mg/day N=6, all cycles",2
same,"Increased ALT, drug-related, CTC Grade 1–4: patients","S1 200 mg/day N=6, all cycles",1
same,"Increased ALT, drug-related, CTC Grade 3–4: patients","S1 200 mg/day N=6, all cycles",1
same,"Nausea, drug-related, CTC Grade 1–4: patients","S1 200 mg/day N=6, all cycles",4
same,"Neutropenia, drug-related, CTC Grade 1–4: patients","S1 200 mg/day N=6, all cycles",1
same,"Neutropenia, drug-related, CTC Grade 3–4: patients","S1 200 mg/day N=6, all cycles",1
same,"Syncope, drug-related, CTC Grade 1–4: patients","S1 200 mg/day N=6, all cycles",1
same,"Syncope, drug-related, CTC Grade 3–4: patients","S1 200 mg/day N=6, all cycles",1
same,"Tremor, drug-related, CTC Grade 1–4: patients","S1 200 mg/day N=6, all cycles",4
same,"Tremor, drug-related, CTC Grade 3–4: patients","S1 200 mg/day N=6, all cycles",2
same,"Vomiting, drug-related, CTC Grade 1–4: patients","S1 200 mg/day N=6, all cycles",4
same,"Any drug-related adverse event, CTC Grade 1–4: patients","S1 300 mg/day N=1, all cycles",1
same,"Any drug-related adverse event, CTC Grade 3–4: patients","S1 300 mg/day N=1, all cycles",1
same,"Ataxia, drug-related, CTC Grade 1–4: patients","S1 300 mg/day N=1, all cycles",1
same,"Ataxia, drug-related, CTC Grade 3–4: patients","S1 300 mg/day N=1, all cycles",1
same,"Dehydration, drug-related, CTC Grade 1–4: patients","S1 300 mg/day N=1, all cycles",1
same,"Diarrhea, drug-related, CTC Grade 1–4: patients","S1 300 mg/day N=1, all cycles",1
same,"Dizziness, drug-related, CTC Grade 1–4: patients","S1 300 mg/day N=1, all cycles",1
same,"Fatigue, drug-related, CTC Grade 1–4: patients","S1 300 mg/day N=1, all cycles",1
same,"Nausea, drug-related, CTC Grade 1–4: patients","S1 300 mg/day N=1, all cycles",1
same,"Tremor, drug-related, CTC Grade 1–4: patients","S1 300 mg/day N=1, all cycles",1
same,"Vomiting, drug-related, CTC Grade 1–4: patients","S1 300 mg/day N=1, all cycles",1
same,dose-limiting toxicities (DLTs),S1 (7 days on/7 days off q2wks),ataxia (Grade 2–4) and tremors (Grade 2–3)
same,patients with drug-related eye disorders,"S1, single patient, Grade 1 increased lacrimation",4.5%
same,patients discontinued due to adverse events,S1 N=22,13.6%
same,ataxia,S2,not observed
same,fundoscopy and ERG abnormalities during treatment,S2,neither clinically relevant abnormality at fundoscopy nor ERG abnormalities
same,"Anemia, drug-related, CTC Grade 1–4: patients","S2 150 mg/day N=5, all cycles",2
same,"Any drug-related adverse event, CTC Grade 1–4: patients","S2 150 mg/day N=5, all cycles",5
same,"Any drug-related adverse event, CTC Grade 3–4: patients","S2 150 mg/day N=5, all cycles",4
same,"Diarrhea, drug-related, CTC Grade 1–4: patients","S2 150 mg/day N=5, all cycles",3
same,"Hypokalemia, drug-related, CTC Grade 1–4: patients","S2 150 mg/day N=5, all cycles",1
same,"Hypokalemia, drug-related, CTC Grade 3–4: patients","S2 150 mg/day N=5, all cycles",1
same,"Increased ALT, drug-related, CTC Grade 1–4: patients","S2 150 mg/day N=5, all cycles",1
same,"Increased ALT, drug-related, CTC Grade 3–4: patients","S2 150 mg/day N=5, all cycles",1
same,"Increased Lipase, drug-related, CTC Grade 1–4: patients","S2 150 mg/day N=5, all cycles",1
same,"Increased Lipase, drug-related, CTC Grade 3–4: patients","S2 150 mg/day N=5, all cycles",1
same,"Nausea, drug-related, CTC Grade 1–4: patients","S2 150 mg/day N=5, all cycles",3
same,"Neutropenia, drug-related, CTC Grade 1–4: patients","S2 150 mg/day N=5, all cycles",1
same,"Tremor, drug-related, CTC Grade 1–4: patients","S2 150 mg/day N=5, all cycles",3
same,"Vomiting, drug-related, CTC Grade 1–4: patients","S2 150 mg/day N=5, all cycles",2
same,"Vomiting, drug-related, CTC Grade 3–4: patients","S2 150 mg/day N=5, all cycles",1
same,"Anemia, drug-related, CTC Grade 1–4: patients","S2 200 mg/day N=4, all cycles",2
same,"Any drug-related adverse event, CTC Grade 1–4: patients","S2 200 mg/day N=4, all cycles",4
same,"Any drug-related adverse event, CTC Grade 3–4: patients","S2 200 mg/day N=4, all cycles",2
same,"Dehydration, drug-related, CTC Grade 1–4: patients","S2 200 mg/day N=4, all cycles",1
same,"Diarrhea, drug-related, CTC Grade 1–4: patients","S2 200 mg/day N=4, all cycles",3
same,"Diarrhea, drug-related, CTC Grade 3–4: patients","S2 200 mg/day N=4, all cycles",1
same,"Dizziness, drug-related, CTC Grade 1–4: patients","S2 200 mg/day N=4, all cycles",2
same,"Fatigue, drug-related, CTC Grade 1–4: patients","S2 200 mg/day N=4, all cycles",3
same,"Nausea, drug-related, CTC Grade 1–4: patients","S2 200 mg/day N=4, all cycles",1
same,"Neutropenia, drug-related, CTC Grade 1–4: patients","S2 200 mg/day N=4, all cycles",1
same,"Tremor, drug-related, CTC Grade 1–4: patients","S2 200 mg/day N=4, all cycles",2
same,"Tremor, drug-related, CTC Grade 3–4: patients","S2 200 mg/day N=4, all cycles",1
same,"Vomiting, drug-related, CTC Grade 1–4: patients","S2 200 mg/day N=4, all cycles",1
same,dose-limiting toxicities (DLTs),S2 (4 days on/3 days off × 3wks q4wks),"tremors (Grade 2–3), elevated lipase (Grade 3), increased creatinine (Grade 2), and nausea and vomiting (Grade 3)"
same,patients discontinued due to adverse events,S2 N=15,13.3 ^a %
same,blood chemistry and hematology abnormalities,"any schedule, except lymphocytopenia",No significant blood chemistry and hematology abnormalities
same,doses at which tremors and ataxia were dose-limiting,both schedules,> 150 mg/day
same,lymphocytopenia occurrence,both schedules,half of cases
same,on study deaths,both schedules,No on study deaths
same,"effects on coagulation, blood pressure, ECGs",in vivo,did not cause significant effects
same,recommended phase II dose (RP2D),"oral, both schedules (S1 and S2)",150 mg/day
